Results from publication PMC6892255, “Identification of a potent small-molecule inhibitor of bacterial DNA repair that potentiates quinolone antibiotic activity in methicillin-resistant Staphylococcus aureus^” (Bioorganic & Medicinal Chemistry, 2019).
“Also recorded” adds a separate entry of the source.

Experiments:
MRSA (USA300 JE2) = test: Growth inhibition in the presence of H2O2; format: cell-based, Staphylococcus aureus
Protocol: The analogue panel was further tested for potentiation of alternative DNA-damaging agents Mitomycin-C (MMC) and hydrogen peroxide (Table S2), which function via alkylation and oxidization DNA bases, respectively.
(§1) 2.1. Biological and biochemical methods
(§2) Bacterial strains and culture conditions
(§3) Strains utilized in the present study are detailed in Table S1. All strains used were cultivated on Mueller Hinton Agar (MHA) and grown to stationary-phase in Mueller Hinton Broth (MHB) at 37 °C for 16 h, with shaking at 180 r.p.m.
(§4) Minimum inhibitory concentration (MIC) assays
(§5) MIC assays were performed in 96 well plates and MICs were determined in accordance with the broth microdilution protocol.4 Strains grown to stationary-phase in MHB were adjusted to 5 x 10^5 colony-forming units (CFU)/mL in fresh MHB (100 µL/well) supplemented with DMSO to ensure a constant concentration of 0.5% (v/v) DMSO across all experiments. Where […]
(§6) or H2O2 (200 μM). Test compounds were prepared as two-fold serial dilutions. Cells were […]
(§7) as the lowest concentration with no visible bacterial growth, and the optical density at 600 nm (OD600) was recorded. OD600 measurements were background corrected against no-inocula control and normalized to DMSO control for dose-response analysis. The EC50 value mean and SEM were calculated from individual EC50 values from three biological replicates. […]

JE2 = test: Synergy experiments with CFX (growth rate method, Chou-Talalay, CompuSyn); format: cell-based, Staphylococcus aureus
Protocol: A more precise method to determine EC50 values for individual compounds and combinations was used to increase accuracy for CI calculations. […]
Synergy experiments were performed as described for MIC assays. Two-fold serial dilutions […]
carried out at 37 °C, with shaking at 220 r.p.m. OD600 was recorded every 30 min over a 17 h period. Measurements were background corrected against the no-inocula control before a growth curve of OD600 against time was constructed. The gradient of the exponential phase was obtained by linear regression. Gradients were normalized against the smallest and largest value within the respective data set prior to analysis with the CompuSyn software (http://www.combosyn.com/) to calculate combination index (CI) and dose-reduction index (DRI) values for each drug combination. […]

E. coli topoisomerase IV = molecular target: T1, E. coli topoisomerase IV (Escherichia coli, UniProt P0AFI2+P20083); test: Topoisomerase IV supercoiling relaxation assay (pQE80L); format: biochemical; conditions: at 12.5 µM (compounds)
T1 construct: purchased Inspiralis
Protocol: 2.1. Biological and biochemical methods […]
E. coli DNA gyrase supercoiling assay (Inspiralis) was performed according to the manufacturer’s instructions, ensuring a constant concentration of 1% (v/v) DMSO. Samples were separated on a 1% (w/v) agarose gel prepared with Tris/Borate/EDTA (TBE) buffer (1 M Tris-borate, 20 mM EDTA, pH 8.0). Electrophoresis was performed at 100 V until the bromophenol blue dye had run >6 cm to ensure resolution of relaxed and supercoiled DNA.
The gel was stained with SYBR Safe DNA gel stain (Invitrogen, 1:10,000 dilution in TBE) for 30 min, and visualized on a Syngene Gel Doc system. Band intensity was quantified using ImageJ software and the fraction of supercoiled plasmid was determined as the ratio of the density of the supercoiled band to the total density. Values were background corrected against the no-gyrase control and normalized to DMSO control for dose-response analysis.
E. coli topoisomerase IV supercoiling relaxation assay (Inspiralis) was performed according to the manufacturer’s instructions, ensuring a constant concentration of 1% (v/v) DMSO.
Supercoiled pQE80L was prepared via plasmid purification and used as the substrate for the reaction. Reactions were analyzed as described for DNA gyrase assays. […]

[1] = test system: methicillin-resistant S. aureus (MRSA, USA300 JE2); test: Ciprofloxacin (CFX) potentiation in MRSA growth inhibition assay; format: cell-based, Staphylococcus aureus
Protocol: as §1, §2, §3, §4, §5, §6, §7

E. coli K-12 BW25113 = test: MIC / growth inhibition assay (end-point OD600), single agent; format: cell-based, Escherichia coli; conditions: Escherichia coli, BW25113, end-point OD600 after 18 h, read-out: EC50 E. coli (K12 BW25113) Compound only
Text: (§8) Minimum inhibitory concentration (MIC) assays were used to evaluate the antimicrobial activity of compounds against Gram-negative (E. coli) and Gram-positive (S. aureus) bacteria. […] Gram-positive bacteria are more susceptible to small-molecule penetration, and compounds were therefore assessed for growth inhibition against the S. aureus SH1000 strain.
as §1, §2, §3, §4, §5, §6, §7

[2] = test system: methicillin-resistant S. aureus (MRSA, USA300 JE2); test: as above; format: cell-based, Staphylococcus aureus
Text: as §8
Methicillin-resistant S. aureus (MRSA) is a multi-drug resistant bacterium responsible for a large number of nosocomial infections.[34] The emergence of community associated (CA)-MRSA capable of infection of healthy individuals highlights its significance and clinical relevance.[35]
as §1, §2, §3, §4, §5, §6, §7

[3] = test system: SOS response in JE2 cells; test: SOS reporter assay (GFP under control of the recA promoter); format: cell-based, Staphylococcus aureus; conditions: for SOS response (normalized GFP fluorescence/cell): JE2 recA-GFP reporter, SOS activated with CFX (10 µM), titration of compound
Text: A SOS reporter system was generated by transformation of JE2 cells with a plasmid containing GFP under control of the recA promoter. Activation of the SOS response in these cells results in expression of GFP which can be monitored by fluorescence intensity. […] IMP-1700 (10) was coupled with N-Boc-ethylenediamine to afford amide 19, followed by removal of the Boc group in 4 M HCl/dioxane and purification using strong cation exchange resin. The resulting free amine 20 was coupled to N-hydroxysuccinimide (NHS)-activated Sepharose resin at 4 °C overnight (Figure 2C), and the remaining NHS sites quenched in Tris buffer. SoluBL21 competent E. coli were transformed with pET28b^+ containing StrepII-tagged AddA and hexahistidine-tagged AddB, and expression induced overnight at 16 °C. […] Beads were washed three times with lysis buffer and bound protein eluted with SDS-PAGE sample buffer, followed by PAGE separation. […]
JE2 transformed with SOS-inducible pCN34 PrecA-gfp reporter plasmid expressing GFP under the control of the recA promoter were grown to late stationary phase at 37 °C in MHB containing kanamycin (90 μg/mL). Stationary phase JE2 culture (1 mL) was centrifuged (17,000 × g, 2 min), the supernatant removed and cells resuspended in assay media (12.5 µM […]
concentration was maintained >12.5 µM and DMSO concentration maintained at 1.5% (v/v).
JE2 culture (20 uL) was added to inhibitor solutions (180 µL) to a final cell density of 4 x 10^7 CFU/mL and samples incubated in a M200-PRO microplate reader (Tecan) at 37 °C with 700 rpm agitation for 17 h. GFP fluorescence intensity and OD600 were measured at 15 min intervals. Measurements were background corrected against no-inocula control and normalized to no-test inhibitor control at mid-exponential growth phase (4.5 h) for dose-response analysis. […]

T1 sequence (P0AFI2 whole entry): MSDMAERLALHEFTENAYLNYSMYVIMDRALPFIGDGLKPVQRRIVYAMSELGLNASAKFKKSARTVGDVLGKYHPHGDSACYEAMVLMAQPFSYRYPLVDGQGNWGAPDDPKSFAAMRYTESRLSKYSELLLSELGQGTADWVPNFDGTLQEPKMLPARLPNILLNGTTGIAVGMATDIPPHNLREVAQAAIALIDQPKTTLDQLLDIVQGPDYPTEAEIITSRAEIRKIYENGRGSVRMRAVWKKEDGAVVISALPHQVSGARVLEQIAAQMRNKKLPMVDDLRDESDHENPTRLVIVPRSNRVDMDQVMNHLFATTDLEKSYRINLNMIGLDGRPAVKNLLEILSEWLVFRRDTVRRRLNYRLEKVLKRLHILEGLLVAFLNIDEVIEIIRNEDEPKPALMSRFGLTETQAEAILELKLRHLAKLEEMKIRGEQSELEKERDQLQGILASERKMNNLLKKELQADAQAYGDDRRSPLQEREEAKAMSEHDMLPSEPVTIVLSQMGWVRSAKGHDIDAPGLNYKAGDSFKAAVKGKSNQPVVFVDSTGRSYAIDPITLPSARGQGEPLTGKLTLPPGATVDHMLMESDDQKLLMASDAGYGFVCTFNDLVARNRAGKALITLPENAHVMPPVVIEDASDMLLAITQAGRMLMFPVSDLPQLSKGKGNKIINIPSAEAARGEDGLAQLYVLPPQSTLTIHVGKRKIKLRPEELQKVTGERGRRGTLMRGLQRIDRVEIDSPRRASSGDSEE
T1 sequence (P20083 whole entry): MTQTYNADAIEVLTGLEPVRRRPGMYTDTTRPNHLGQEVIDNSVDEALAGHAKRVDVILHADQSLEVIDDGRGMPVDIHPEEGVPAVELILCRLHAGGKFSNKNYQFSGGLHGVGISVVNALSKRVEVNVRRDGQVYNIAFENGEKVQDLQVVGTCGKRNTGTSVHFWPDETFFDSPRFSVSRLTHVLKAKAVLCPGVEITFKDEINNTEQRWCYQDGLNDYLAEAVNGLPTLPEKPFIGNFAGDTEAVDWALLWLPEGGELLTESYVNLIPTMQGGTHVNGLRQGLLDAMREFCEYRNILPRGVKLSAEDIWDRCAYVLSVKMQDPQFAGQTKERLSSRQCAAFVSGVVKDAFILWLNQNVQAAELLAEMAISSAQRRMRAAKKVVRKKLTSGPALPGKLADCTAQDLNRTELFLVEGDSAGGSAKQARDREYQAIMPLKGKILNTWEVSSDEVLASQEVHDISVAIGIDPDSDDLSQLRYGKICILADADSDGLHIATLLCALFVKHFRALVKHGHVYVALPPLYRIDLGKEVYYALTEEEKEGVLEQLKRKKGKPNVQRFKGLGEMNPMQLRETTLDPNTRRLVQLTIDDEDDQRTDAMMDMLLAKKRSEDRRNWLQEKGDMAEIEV

Compound: O=C(O)c1cn(C2CC2)c2cc(N3CCN(C(=S)Nc4ccc(C(F)(F)F)cc4)CC3)c(F)cc2c1=O [Compound 10]
- Potentiation of hydrogen peroxide (MRSA (USA300 JE2); JE2): did not potentiate
- EC50 (MRSA (USA300 JE2); read-out: EC50 Compound + H2O2 (200 µM), MRSA USA300 JE2, H2O2 200 µM): 4.1 ± 0.6 µM
- Dose-reduction index (DRI) (JE2; JE2, combination with CFX, CompuSyn): 2.8
- Combination index (CI) with CFX (JE2; JE2, constant-ratio combination with CFX, CompuSyn): 0.70
- EC50 (JE2; Staphylococcus aureus, JE2, rate of exponential growth phase over 17 h at 37 °C): 2800 ± 200 nM
- Inhibition of topoisomerase IV (E. coli topoisomerase IV): not inhibited and not
- fold increase in potency against JE2 in the presence of CFX compared to single agent ([1]; CFX 9.4 µM): ~650 fold
- fold increase in potency compared to 1 for potentiation against JE2 by CFX ([1]; JE2 + CFX): ~160 fold
- fold increase in potency of para- over meta-substituted analogue, potentiation by CFX ([1]; JE2 + CFX, 4 vs 1, 10 vs 7, 14 vs 13): ~25 fold
- EC50 ([1]; read-out: EC50 S. aureus (USA300 JE2) Compound + CFX (9.4 μM), in presence of half-MIC CFX (9.4 μM)): 5.9 ± 0.6 nM
- EC50 (E. coli K-12 BW25113): 500 ± 50 nM
- EC50 ([2]; Staphylococcus aureus, 18 h, read-out: EC50 S. aureus (USA300 JE2) Compound only, single agent, end-point OD600 after 18 h): 3.8 ± 0.5 µM
- fold less potent against JE2 compared to SH1000 ([2]; ratio of single-agent EC50 values): > 20 fold
- Effect on cell number (OD600) in SOS reporter assay ([3]; JE2 recA-GFP reporter with CFX (10 µM)): decrease in cell number at low micromolar concentrations
- SOS response (normalized GFP fluorescence/cell) [3]: decreased
- SOS response (normalized GFP fluorescence/cell) ([3]; listed as IMP-1700): decreased normalized GFP fluorescence/cell; also recorded: decreased SOS response
